Results: US20170239318A1, “COMPOSITONS AND METHODS FOR CARTILAGE DEFECT REPAIR USING A RHAMM-MIMETIC PEPTIDE” (New York University, priority 2014, published 2017)
Like-named read-outs stand apart in the source and are kept apart here.

Experiments:
[1] = test system: RHAMM over-expressing LR21 cells; test: in vitro random motility assay (scratch wound, HA fragment-stimulated cell migration); format: cell-based; conditions: 50 μg/mL peptide with 500 ng/mL 30-mer HA fragments, 24 hours; relative to PBS control, p<0.05
Protocol: FIG. 2: Effect of peptide 15-1 on fibroblast migration, using an in vitro random motility assay. RHAMM over-expressing LR21 cells were plated on a fibronectin-coated surface in Dulbecco's Modified Eagles Medium (DMEM) with 10% fetal bovine serum (FBS). The following day medium was changed to DMEM with 1% FBS, 50 μg/ml peptide, 500 ng/ml 30-mer HA fragment. Random motility was measured microscopically. “Old P15-1” refers to a peptide batch that was used in previous experiments. As control (ctr), PBS was used instead of peptide.
Functional testing of peptide 15-1 using an in vitro random motility assay. The functional testing of peptide 15-1 using an in vitro random motility assay was done essentially as previously described (16). Briefly, RHAMM over-expressing LR21 cells were plated at 7×10^5 cells/well in fibronectin coated six-well plates using Dulbecco's modified Eagle's medium (DMEM) (Gibco BRL/Invitrogen, Carlsbad, Calif.) containing 10% fetal calf serum (FCS). Confluence of cell monolayers after 24 hours was between 80% and 90%. […] The number of cells that had migrated into the scratch wounds was quantified using NIH image processing software ImageJ as follows. A box adjusted to reach each opposing edge of the wound was placed over 3 randomly assigned parts of each scratch wound and the numbers of cells within the box were counted. […]

[2] = test system: full-thickness excisional rat wound; conditions: cited from earlier work
SW982 synovial cell line = test: mRNA levels of catabolic markers in IL-1β-treated SW982 synovial fibroblasts (real time PCR); format: cell-based; conditions: 52 ng/ml peptide, 10 ng/ml IL-1β, 24 h
Protocol: FIG. 9: RHAMM-mimetic peptide decreased the mRNA levels of catabolic markers (Cox-2, IL-6, MMP-13) in the SW982 synovial cell line. SW982 cells after being serum-starved for 24 h were treated with RHAMM-mimetic peptide of SEQ ID NO:1 (Pep) at a concentration of 52 ng/ml for 24 h. mRNA levels of Cox-2, IL-6 and MMP-13 were determined by real time PCR using SYBR Green and normalized to the 18 S RNA. mRNA levels are expressed as relative units with the mRNA levels of untreated cells set as 1. Data are expressed as mean±SD from the results of three different cultures.
The synovial fibroblast cell line SW982 was used between passage 3 and passage 7 and cultured in DMEM containing 10% fetal calf serum until the cells reached confluence. Cells were then serum-starved for 24 h and then treated with 10 ng/ml recombinant human IL-1β and 52 ng/ml RHAMM-mimetic peptide for 48 h.
(§1) RT-PCR and Real-Time PCR Analysis. mRNA levels of catabolic markers (cyclooxygenase (Cox)-2, interleukin (IL)-6, inducible nitric oxide synthase (iNOS), matrix metalloproteinase (MMP)-13) and articular cartilage markers (aggrecan, type II collagen) were determined by real time PCR analysis as described by us previously (25, 26). Briefly, total RNA was isolated from chondrocyte cultures using the RNEASY minikit (Qiagen, Valencia, Calif.). One μg of total RNA was reverse transcribed by using an OMNISCRIPT RT kit (Qiagen). A 1:100 dilution of the resulting cDNA was used as the template to quantify the relative content of mRNA by real-time PCR (STEPONEPLUS™ System; Applied Biosystems, Foster City, Calif.) with the appropriate primers and SYBR Green. PCRs were performed with a SYBR Green PCR Master Mix kit (Applied Biosystems), at 95° C. for 10 min followed by 40 cycles at 95° C. for 15 s and 60° C. for 1 min, and 1 cycle at 95° C. for 15 s and 60° C. for 1 min. The 18 S RNA was amplified at the same time and used as an internal control. The cycle threshold values for 18 S RNA and the samples were measured and calculated by computer software.

skin wound repair = conditions: cited from earlier work
[3] = test system: IL-1β-treated human articular chondrocytes; test: HA released into the medium of IL-1β-treated human articular chondrocytes (ELSA); format: cell-based; conditions: 10 ng/ml IL-1β, 48 h
Protocol: FIG. 7: HA concentration in the medium of human articular chondrocytes is increased by IL-1β. A: RHAMM-mimetic peptide at a concentration of 0.026 μg/ml or 0.052 μg/ml (Pep0.026, Pep0.052) had no effect on the HA release into the medium of IL-1β-treated chondrocytes. […] Human articular chondrocytes were serum-starved for 24 h followed by treatment of these cells with 10 ng/ml IL-1β and various concentrations of the RHAMM-mimetic peptide for 48 h. HA released into the medium was measured by ELSA (ELISA-like) specific assay.
Chondrocyte Cultures. Human articular chondrocytes were isolated from articular cartilage samples obtained from patients (donor age range 48-67) undergoing total knee replacement surgery at NYU Hospital for Joint Diseases. Knee cartilage was harvested from regions with no macroscopically evident degeneration. The collection of tissue from patients undergoing knee replacement surgery was approved by the Institutional Regulatory Board (IRB) at NYU School of Medicine. Human chondrocytes were isolated from these cartilage samples and cultured as described by us previously (24). […]
Analysis of HA concentration in Chondrocyte Culture Medium. […] Conditioned media (approximately 1 ml each sample) from chondrocyte cultures were stored frozen at −20° C. until analyzed. […]

recombinant RHAMM = target: T1, recombinant RHAMM (Homo sapiens, UniProt O75330); conditions: cited from earlier work
T1 sequence (O75330 1-724): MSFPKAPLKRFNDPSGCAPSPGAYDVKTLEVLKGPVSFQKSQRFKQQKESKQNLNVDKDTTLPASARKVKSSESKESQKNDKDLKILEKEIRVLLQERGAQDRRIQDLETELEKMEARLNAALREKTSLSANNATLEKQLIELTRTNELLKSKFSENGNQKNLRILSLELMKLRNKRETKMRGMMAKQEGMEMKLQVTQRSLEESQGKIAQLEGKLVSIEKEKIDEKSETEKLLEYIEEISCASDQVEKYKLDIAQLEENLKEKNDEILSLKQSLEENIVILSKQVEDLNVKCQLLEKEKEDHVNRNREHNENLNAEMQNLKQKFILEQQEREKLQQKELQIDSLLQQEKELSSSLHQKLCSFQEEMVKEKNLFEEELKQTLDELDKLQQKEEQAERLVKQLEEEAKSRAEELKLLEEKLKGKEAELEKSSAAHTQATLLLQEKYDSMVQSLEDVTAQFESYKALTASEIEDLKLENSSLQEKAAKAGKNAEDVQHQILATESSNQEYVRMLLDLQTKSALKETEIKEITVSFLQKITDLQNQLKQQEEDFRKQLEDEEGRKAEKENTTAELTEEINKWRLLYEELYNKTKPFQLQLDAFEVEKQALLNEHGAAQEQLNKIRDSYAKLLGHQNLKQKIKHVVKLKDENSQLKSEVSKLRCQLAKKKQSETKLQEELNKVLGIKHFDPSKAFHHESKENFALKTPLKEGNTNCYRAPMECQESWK

[4] = test system: serum-starved human articular chondrocytes; test: mRNA levels of catabolic and articular cartilage markers in serum-starved human articular chondrocytes (real time PCR); format: cell-based; conditions: 48 h
Protocol: FIG. 6: RHAMM-mimetic peptide at concentrations up to 5 μg/ml decreased the mRNA levels of iNOS and MMP-13 (catabolic markers; A) and increased the mRNA levels of type II collagen (α1(II), articular cartilage marker, B) in serum-starved human articular chondrocytes. […] In addition, […] of peptide decreased the mRNA levels of type II collagen. Human articular chondrocytes after being serum-starved for 24 h were treated with RHAMM-mimetic peptide of SEQ ID NO:1 (Pep.) at various concentrations (0, 26, 52, 520, 1000, 5000 ng/ml) for 48 h. mRNA levels of iNOS, MMP-13, and type II collagen were determined by real time PCR using SYBR Green and normalized to the 18 S RNA. mRNA levels are expressed as relative units with the mRNA levels of untreated cells set as 1. Data are expressed as mean±SD from the results of three different cultures.
Chondrocyte Cultures. Human articular chondrocytes were isolated from articular cartilage samples obtained from patients (donor age range 48-67) undergoing total knee replacement surgery at NYU Hospital for Joint Diseases. Knee cartilage was harvested from regions with no macroscopically evident degeneration. The collection of tissue from patients undergoing knee replacement surgery was approved by the Institutional Regulatory Board (IRB) at NYU School of Medicine. Human chondrocytes were isolated from these cartilage samples and cultured as described by us previously (24). Before human chondrocyte cultures were treated with inflammatory stimulus (interleukin-1beta (IL-1β), chondrocyte cultures were switched to serum-free medium for 24 h followed by treatment with the inflammatory stimulus. Cells were treated with 10 ng/ml human recombinant IL-1β in phosphate-buffered saline (PBS)/0.1% BSA. In addition, serum-starved cells were treated with RHAMM-mimetic peptide at various concentrations, HMWHA (ORTHOVISC) at a concentration of 1000 μg/ml, and a combination at four different weight ratios (1:60, 1:30, 1:15, 1:8) of peptide and HMWHA. Cells were treated with these various agents for 24 or 48 h under serum-free conditions.
as §1

[5] = test system: IL-1β-treated human articular chondrocytes; test: mRNA levels of Cox-2 and type II collagen in IL-1β-treated human articular chondrocytes (real time PCR); format: cell-based; conditions: peptide at concentrations up to 64 μg/ml (16, 32, 64), 10 ng/ml IL-1β, 24 h
Protocol: FIG. 8: RHAMM-mimetic peptide at concentrations (16, 32, 64 μg/ml) decreased the mRNA levels of Cox-2 (catabolic marker; A) and increased the mRNA levels of type II collagen (α1 (II), articular cartilage marker, B) in IL-1β-treated human articular chondrocytes. […] Data are expressed as mean±SD from three different cultures.
Chondrocyte Cultures. Human articular chondrocytes were isolated from articular cartilage samples obtained from patients (donor age range 48-67) undergoing total knee replacement surgery at NYU Hospital for Joint Diseases. Knee cartilage was harvested from regions with no macroscopically evident degeneration. […]
RT-PCR and Real-Time PCR Analysis. mRNA levels of catabolic markers (cyclooxygenase (Cox)-2, interleukin (IL)-6, inducible nitric oxide synthase (iNOS), matrix metalloproteinase (MMP)-13) and articular cartilage markers (aggrecan, type II collagen) were determined by real time PCR analysis as described by us previously (25, 26). […] A 1:100 dilution of the resulting cDNA was used as the template to quantify the relative content of mRNA by real-time PCR (STEPONEPLUS™ System; Applied Biosystems, Foster City, Calif.) with the appropriate primers and SYBR Green. […] The cycle threshold values for 18 S RNA and the samples were measured and calculated by computer software.

[6] = applied once to the wound, compared to scrambled, negative control peptide
[7] = all concentrations tested (0.026, 0.052, 0.520, 1, 5, 800 μg/ml), vs untreated cells

In the case of STMMSRSHKTRSHHV [RHAMM-mimetic peptide], the “reduction in fibroblast migration (number of cells migrated into the scratch wounds)” value [1] is given as “statistically significant”, the scarless healing ([2]; applied once to a full-thickness excisional rat wound) is given as “promoted a form of scarless healing” and the blood vessel density [2, 6] is given as “reduced”. For the same sequence, the fibroblast number [2, 6] was “reduced”, the macrophage number [2, 6] was “reduced” and the “type of healing / fibrosis” value ([2]; excisional skin wounds, rat model) was “regenerative type of healing with reduced fibrosis”. For the same sequence, the “Cox-2 mRNA levels” value (SW982 synovial cell line) was “markedly reduced”, the “IL-6 mRNA levels” value (SW982 synovial cell line) was “markedly reduced” and the “MMP-13 mRNA levels” value (SW982 synovial cell line) was “markedly reduced”. For the same sequence, the wound repair (skin wound repair; RHAMM−/− mice) was “not”, the wound repair (skin wound repair; wild type mice) was “altered” and the “HA concentration in conditioned medium (increase caused by IL-1β)” value ([3]; peptide 26 ng/ml or 52 ng/ml) was “little effect”. The “HA concentration in conditioned medium (increase caused by IL-1β)” value ([3]; peptide 17 μg/ml) was “significantly reduced”, the “binding of HA fragments to recombinant RHAMM” value (recombinant RHAMM) was “markedly reduced” and the “decrease of mRNA levels of the catabolic markers (iNOS, MMP-13)” value ([4]; 800 μg/ml compared with lower concentrations of the peptide) was “not as effective”. The “type II collagen mRNA level” value ([4]; 800 μg/ml, compared to untreated cells) was “decreased”, the “MMP-13 mRNA levels” value [4, 7] was “decreased” and the “iNOS mRNA levels” value [4, 7] was “decreased”. For the same sequence, the “type II collagen mRNA levels” value ([4]; concentrations up to 5 μg/ml, vs untreated cells) was “increased”, the “Cox-2 mRNA levels” value [5] was “decreased” and the “type II collagen mRNA level” value [5] was “increased”.
